Converted amounts (≈) assume the structure as drawn.
Assays:
[1] = target: T1, Phosphatidylinositol 4,5-bisphosphate 3-kinase catalytic subunit alpha isoform (Homo sapiens, UniProt P42336); experiment: Inhibition of P110alpha (unknown origin) by Kinase-Glo assay
[2] = target: T2, Phosphatidylinositol 4,5-bisphosphate 3-kinase catalytic subunit beta isoform (Homo sapiens, UniProt P42338); experiment: Inhibition of P110beta (unknown origin) by Kinase-Glo assay
[3] = target: Phosphatidylinositol 4,5-bisphosphate 3-kinase catalytic subunit gamma isoform (Homo sapiens, UniProt P48736); experiment: Inhibition of P110gamma (unknown origin) using PI or PIP2:PS as substrate measured for 15 to 60 mins by TR-FRET analysis
Sequence of Phosphatidylinositol 4,5-bisphosphate 3-kinase catalytic subunit gamma isoform (P48736 whole entry, canonical isoform): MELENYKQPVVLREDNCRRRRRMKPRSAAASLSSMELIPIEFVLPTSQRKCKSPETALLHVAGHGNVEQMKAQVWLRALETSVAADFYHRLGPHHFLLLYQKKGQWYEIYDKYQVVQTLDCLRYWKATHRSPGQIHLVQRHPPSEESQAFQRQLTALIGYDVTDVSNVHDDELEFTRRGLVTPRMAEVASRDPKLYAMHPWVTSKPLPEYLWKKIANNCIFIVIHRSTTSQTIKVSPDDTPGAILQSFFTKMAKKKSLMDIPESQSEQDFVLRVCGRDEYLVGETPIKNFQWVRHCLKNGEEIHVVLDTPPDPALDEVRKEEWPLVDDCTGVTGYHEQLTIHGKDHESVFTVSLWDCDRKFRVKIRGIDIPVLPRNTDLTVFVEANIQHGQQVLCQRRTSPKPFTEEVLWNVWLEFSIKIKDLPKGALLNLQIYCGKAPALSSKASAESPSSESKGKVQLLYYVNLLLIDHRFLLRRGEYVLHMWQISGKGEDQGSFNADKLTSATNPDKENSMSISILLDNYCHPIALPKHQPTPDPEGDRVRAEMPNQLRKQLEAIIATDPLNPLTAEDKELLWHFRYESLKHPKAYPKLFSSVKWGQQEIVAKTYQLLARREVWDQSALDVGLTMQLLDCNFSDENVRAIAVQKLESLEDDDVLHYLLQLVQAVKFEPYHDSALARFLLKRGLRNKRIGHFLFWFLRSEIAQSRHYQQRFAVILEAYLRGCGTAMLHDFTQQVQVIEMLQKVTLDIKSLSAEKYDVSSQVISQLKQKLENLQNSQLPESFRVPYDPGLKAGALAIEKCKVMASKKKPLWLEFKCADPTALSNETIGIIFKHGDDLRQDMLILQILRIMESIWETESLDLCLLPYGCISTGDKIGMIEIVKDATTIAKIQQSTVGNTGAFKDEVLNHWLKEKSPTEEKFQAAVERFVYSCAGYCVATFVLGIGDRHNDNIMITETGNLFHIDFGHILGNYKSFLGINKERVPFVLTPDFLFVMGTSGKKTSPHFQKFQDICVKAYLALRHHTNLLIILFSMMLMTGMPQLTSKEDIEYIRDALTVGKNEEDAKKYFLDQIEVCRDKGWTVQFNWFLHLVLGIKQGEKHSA

[4] = target: T3, Phosphatidylinositol 4,5-bisphosphate 3-kinase catalytic subunit delta isoform (Homo sapiens, UniProt O00329); experiment: Inhibition of P110delta (unknown origin) using PI or PIP2:PS as substrate measured for 15 to 60 mins by TR-FRET analysis
T3 sequence (O00329 whole entry): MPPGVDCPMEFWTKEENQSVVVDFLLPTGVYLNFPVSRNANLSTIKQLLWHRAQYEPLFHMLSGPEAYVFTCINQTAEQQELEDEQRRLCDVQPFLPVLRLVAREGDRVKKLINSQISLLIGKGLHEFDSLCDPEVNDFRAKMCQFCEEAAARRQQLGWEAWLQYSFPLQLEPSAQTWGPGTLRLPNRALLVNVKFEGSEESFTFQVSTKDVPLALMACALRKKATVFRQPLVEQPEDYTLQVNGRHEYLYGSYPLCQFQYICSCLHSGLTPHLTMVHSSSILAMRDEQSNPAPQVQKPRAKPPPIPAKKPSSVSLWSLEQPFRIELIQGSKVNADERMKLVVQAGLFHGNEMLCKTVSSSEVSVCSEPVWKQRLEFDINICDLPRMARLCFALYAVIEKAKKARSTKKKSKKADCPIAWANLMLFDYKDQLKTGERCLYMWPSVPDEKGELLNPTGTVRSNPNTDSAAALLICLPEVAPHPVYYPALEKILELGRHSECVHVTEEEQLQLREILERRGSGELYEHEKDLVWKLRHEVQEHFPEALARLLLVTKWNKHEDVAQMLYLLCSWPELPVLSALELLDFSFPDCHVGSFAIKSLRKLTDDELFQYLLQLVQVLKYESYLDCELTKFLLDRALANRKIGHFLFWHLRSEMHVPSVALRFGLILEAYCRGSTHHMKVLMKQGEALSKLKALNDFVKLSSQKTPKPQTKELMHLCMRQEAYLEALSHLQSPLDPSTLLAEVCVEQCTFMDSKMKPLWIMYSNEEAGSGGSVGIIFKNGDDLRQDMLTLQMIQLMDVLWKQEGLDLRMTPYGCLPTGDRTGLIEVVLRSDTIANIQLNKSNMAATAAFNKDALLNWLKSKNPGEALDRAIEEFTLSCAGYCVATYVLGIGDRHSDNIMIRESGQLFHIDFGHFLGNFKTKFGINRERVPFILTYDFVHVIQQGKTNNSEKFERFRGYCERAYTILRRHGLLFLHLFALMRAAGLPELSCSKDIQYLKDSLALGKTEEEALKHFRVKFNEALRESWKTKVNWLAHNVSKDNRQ

[5] = target: T1, Phosphatidylinositol 4,5-bisphosphate 3-kinase catalytic subunit alpha isoform; experiment: Inhibition of myristoylated human P110alpha expressed in Rat1 cells assessed as inhibition of Akt phosphorylation at Serine 473 by Western blot analysis; assay type: cell-based
[6] = target: T2, Phosphatidylinositol 4,5-bisphosphate 3-kinase catalytic subunit beta isoform; experiment: Inhibition of myristoylated human P110beta expressed in Rat1 cells assessed as inhibition of Akt phosphorylation at Serine 473 by Western blot analysis; assay type: cell-based
[7] = target: T3, Phosphatidylinositol 4,5-bisphosphate 3-kinase catalytic subunit delta isoform; experiment: Inhibition of myristoylated human P110delta expressed in Rat1 cells assessed as inhibition of Akt phosphorylation at Serine 473 by Western blot analysis; assay type: cell-based
[8] = Solubility of the compound in water at pH 6.8; assay type: physicochemical
[9] = Solubility of the compound in water at pH 4; assay type: physicochemical
[10] = Solubility of the compound in […]; assay type: physicochemical
[11] = Clearance in Sprague-Dawley rat at 1 mg/kg, iv; assay type: ADME, organism-based; settings: in vivo
[12] = Volume of distribution at steady state in Sprague-Dawley rat at 1 mg/kg, iv; assay type: ADME, organism-based; settings: in vivo, read-out: Vdss
[13] = Terminal half life in Sprague-Dawley rat at 1 mg/kg, iv; assay type: ADME, organism-based; settings: in vivo, read-out: beta t1/2 (converted)
Rattus norvegicus [14] = experiment: Dose normalized AUC in Sprague-Dawley rat at 1 mg/kg, iv; assay type: ADME, organism-based; settings: in vivo
Rattus norvegicus [15] = experiment: Dose normalized AUC in Sprague-Dawley rat at 3 mg/kg, po; assay type: ADME, organism-based; settings: in vivo
[16] = Tmax in Sprague-Dawley rat at 3 mg/kg, po; assay type: ADME, organism-based; settings: in vivo
Rattus norvegicus [17] = experiment: Dose normalized Cmax in Sprague-Dawley rat at 3 mg/kg, po; assay type: ADME, organism-based; settings: in vivo
[18] = Oral bioavailability in Sprague-Dawley rat at 3 mg/kg; assay type: ADME, organism-based; settings: in vivo
[19] = Plasma protein binding in rat; assay type: ADME, cell-free; settings: read-out: PPB (converted)

T1 sequence (P42336 whole entry, canonical isoform): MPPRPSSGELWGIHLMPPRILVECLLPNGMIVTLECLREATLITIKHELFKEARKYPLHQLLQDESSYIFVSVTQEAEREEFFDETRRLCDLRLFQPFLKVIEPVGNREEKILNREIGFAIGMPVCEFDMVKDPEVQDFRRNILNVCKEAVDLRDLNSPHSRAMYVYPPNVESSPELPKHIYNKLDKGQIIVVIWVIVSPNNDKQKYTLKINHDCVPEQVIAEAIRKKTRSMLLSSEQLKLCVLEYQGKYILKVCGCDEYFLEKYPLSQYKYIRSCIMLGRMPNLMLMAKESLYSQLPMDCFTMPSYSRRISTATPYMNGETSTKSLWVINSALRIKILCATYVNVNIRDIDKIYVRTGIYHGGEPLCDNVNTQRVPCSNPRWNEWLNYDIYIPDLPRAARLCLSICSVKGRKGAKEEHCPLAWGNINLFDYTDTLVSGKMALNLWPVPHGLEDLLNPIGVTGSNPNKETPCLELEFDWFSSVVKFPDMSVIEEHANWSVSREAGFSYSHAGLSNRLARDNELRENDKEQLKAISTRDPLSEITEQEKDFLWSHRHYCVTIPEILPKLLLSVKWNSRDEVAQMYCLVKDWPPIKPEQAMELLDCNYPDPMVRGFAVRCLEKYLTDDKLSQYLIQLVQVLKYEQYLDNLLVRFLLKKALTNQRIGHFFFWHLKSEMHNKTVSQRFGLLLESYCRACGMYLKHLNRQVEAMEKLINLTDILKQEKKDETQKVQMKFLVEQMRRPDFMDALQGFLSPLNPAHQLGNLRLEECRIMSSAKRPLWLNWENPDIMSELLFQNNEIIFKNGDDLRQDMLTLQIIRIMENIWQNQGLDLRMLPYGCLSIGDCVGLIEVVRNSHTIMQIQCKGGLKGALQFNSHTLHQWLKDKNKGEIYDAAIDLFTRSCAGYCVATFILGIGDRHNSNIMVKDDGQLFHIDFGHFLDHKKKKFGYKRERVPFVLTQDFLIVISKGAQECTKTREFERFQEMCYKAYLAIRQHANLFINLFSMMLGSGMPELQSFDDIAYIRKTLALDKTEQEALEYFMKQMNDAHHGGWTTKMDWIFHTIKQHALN
T2 sequence (P42338 whole entry, canonical isoform): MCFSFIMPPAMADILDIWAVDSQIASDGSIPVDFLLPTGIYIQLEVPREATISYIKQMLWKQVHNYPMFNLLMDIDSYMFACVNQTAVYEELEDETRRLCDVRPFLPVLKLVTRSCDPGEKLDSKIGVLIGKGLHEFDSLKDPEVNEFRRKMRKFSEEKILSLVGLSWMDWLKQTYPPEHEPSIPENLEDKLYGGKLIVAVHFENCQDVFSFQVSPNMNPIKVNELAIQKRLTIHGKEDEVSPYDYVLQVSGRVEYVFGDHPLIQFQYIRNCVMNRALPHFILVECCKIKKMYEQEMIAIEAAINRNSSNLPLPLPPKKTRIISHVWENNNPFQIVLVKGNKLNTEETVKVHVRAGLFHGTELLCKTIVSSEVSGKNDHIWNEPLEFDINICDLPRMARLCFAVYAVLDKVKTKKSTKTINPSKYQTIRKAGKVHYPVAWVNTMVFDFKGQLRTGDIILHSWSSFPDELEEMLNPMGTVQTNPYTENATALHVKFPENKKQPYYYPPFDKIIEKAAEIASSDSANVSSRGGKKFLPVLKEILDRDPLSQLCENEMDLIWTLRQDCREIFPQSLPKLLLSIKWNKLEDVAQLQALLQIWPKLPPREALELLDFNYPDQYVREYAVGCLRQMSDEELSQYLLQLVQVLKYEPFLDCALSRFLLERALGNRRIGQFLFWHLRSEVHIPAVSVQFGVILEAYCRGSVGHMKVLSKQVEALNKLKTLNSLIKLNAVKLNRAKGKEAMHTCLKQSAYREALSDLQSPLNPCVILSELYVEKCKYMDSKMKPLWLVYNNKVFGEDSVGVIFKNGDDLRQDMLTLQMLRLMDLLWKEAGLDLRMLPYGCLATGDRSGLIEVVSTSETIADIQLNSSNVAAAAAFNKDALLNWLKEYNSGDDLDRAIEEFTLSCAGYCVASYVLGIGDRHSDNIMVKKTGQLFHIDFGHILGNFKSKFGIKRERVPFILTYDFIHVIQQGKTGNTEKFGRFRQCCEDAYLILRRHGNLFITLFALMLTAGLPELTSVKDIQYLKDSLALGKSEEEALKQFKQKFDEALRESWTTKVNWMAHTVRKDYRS

SMILES	IC50 [1]	IC50 [2]	IC50 [3]	IC50 [4]	IC50 [5]	IC50 [6]	IC50 [7]	solubility [8]	solubility [9]	solubility [10]	clearance [11]	Vd [12]	half-life [13]	AUC/dose (Rattus norvegicus [14])	AUC/dose (Rattus norvegicus [15])	Tmax [16]	Cmax/dose (Rattus norvegicus [17])	bioavailability [18]	fraction unbound [19]
Cc1nc(NC(=O)N2CC[C@@H](C)[C@H]2C(N)=O)sc1-c1ccnc(C(C)(C)C(F)(F)F)c1	19 nM	1040 nM	230 nM	390 nM	19 nM	2000 nM	616 nM	23 µM (≈ 10.5 µg/mL)	35 µM (≈ 15.9 µg/mL)	31 µM (≈ 14.1 µg/mL)	–	–	–	–	–	–	–	–	–
C[C@@H]1CCN(C(=O)Nc2nc3c(s2)-c2cc(C(C)(C)C(F)(F)F)ncc2OC3)[C@@H]1C(N)=O	5 nM	670 nM	200 nM	220 nM	11 nM	1110 nM	540 nM	260 µM (≈ 122 µg/mL)	450 µM (≈ 211 µg/mL)	410 µM (≈ 192 µg/mL)	27 mL/min/kg	1.8 L/kg	1.4 h	1368 nM·h	228 nM·h	1.2 h	61 nM	17%	0.033
